Source: patent publication US8846719B2, “Isoxazolo-pyridine derivatives” (Roche Palo Alto LLC, priority 2007, dated 2014)
Like-named read-outs stand apart in the source and are kept apart here.

Biological target: human GABA A receptor α5β3γ2 (Homo sapiens (Human), UniProt P18507+P31644)
Assay: [3H]flumazenil competition binding assay, human GABA A α5β3γ2 receptors expressed in HEK293 cells
Protocol: The affinity of compounds at GABA A receptor subtypes was measured by competition for [3H]flumazenil (85 Ci/mmol; Roche) binding to HEK293 cells expressing rat (stably transfected) or human (transiently transfected) receptors of composition α1β3γ2, α2β3γ2, α3β3γ2 and α5β3γ2.
Cell pellets were suspended in Krebs-tris buffer (4.8 mM KCl, 1.2 mM CaCl2, 1.2 mM MgCl2, 120 mM NaCl, 15 mM Tris; pH 7.5; binding assay buffer), homogenized by polytron for ca. 20 sec on ice and centrifuged for 60 min at 4° C. (50000 g; Sorvall, rotor: SM24=20000 rpm). The cell pellets were resuspended in Krebs-tris buffer and homogenized by polytron for ca. 15 sec on ice. Protein was measured (Bradford method, Bio-Rad) and aliquots of 1 mL were prepared and stored at −80° C.
Assays were incubated to equilibrium for 1 hour at 4° C. and harvested onto GF/C uni-filters (Packard) by filtration using a Packard harvester and washing with ice-cold wash buffer (50 mM Tris; pH 7.5). After drying, filter-retained radioactivity was detected by liquid scintillation counting. Ki values were calculated using Excel-Fit (Microsoft) and are the means of two determinations.

[1] = human receptor, displacement of [3H]flumazenil (0.5 nM), means of two determinations, read-out: hKi GABAAa5

SMILES	Ki [1] [nM]	Ki [nM]
Cc1onc(-c2ccccc2)c1COc1ccc(C(=O)N[C@H]2CCCC[C@H]2O)cn1 (racemic) [Example 199, N-((1S,2R) and (1R,2S)-2-Hydroxy-cyclohexyl)-6-(5-methyl-3-phenyl-isoxazol-4-ylmethoxy)-nicotinamide]	2.8	–
CCNC(=O)c1ccc(OCc2c(-c3ccccn3)noc2C)nc1 [Example 280, Ethyl-6-(5-methyl-3-pyridin-2-yl-isoxazol-4-ylmethoxy)-nicotinamide]	1.1	–
Cc1onc(-c2ccccc2)c1COc1ccc(C(=O)NC2CCCCC2O)cn1 (stereo not shown) [Example 192, N-(2-Hydroxy-cyclohexyl)-6-(5-methyl-3-phenyl-isoxazol-4-ylmethoxy)-nicotinamide]	2.9	–
Cc1onc(-c2ccc(Cl)cn2)c1COc1ccc(C(=O)NCC(F)(F)F)cn1 [Example 308, 6-[3-(5-Chloro-pyridin-2-yl)-5-methyl-isoxazol-4-ylmethoxy]-(2,2,2-trifluoro-ethyl)-nicotinamide]	0.2	–
Cc1onc(-c2ccccc2)c1COc1ccc(C(=O)NCCOC(C)C)cn1 [Example 189, N-(2-Isopropoxy-ethyl)-6-(5-methyl-3-phenyl-isoxazol-4-ylmethoxy)-nicotinamide]	41.3	–
CC(C)(CO)NC(=O)c1ccc(OCc2conc2-c2ccc(F)cn2)nc1 [Example 368, 6-[3-(5-Fluoro-pyridin-2-yl)-isoxazol-4-ylmethoxy]-(2-hydroxy-1,1-dimethyl-ethyl)-nicotinamide]	44.9	–
Cc1onc(-c2ccccc2)c1COc1ccc(C(=O)NC2CCN(C(C)C)CC2)cn1 [Example 36, N-(1-Isopropyl-piperidin-4-yl)-6-(5-methyl-3-phenyl-isoxazol-4-ylmethoxy)-nicotinamide]	–	9.9
Cc1nc(OCc2c(-c3ccccc3)noc2C)ccc1C(=O)NC1CCOCC1 [Example 60, 2-Methyl-6-(5-methyl-3-phenyl-isoxazol-4-ylmethoxy)-N-(tetrahydro-pyran-4-yl)-nicotinamide]	38.7	–
Cc1onc(-c2ccccc2)c1COc1cc(C2=CCN(C)CC2)ccn1 [Example 57, 1-Methyl-2′-(5-methyl-3-phenyl-isoxazol-4-ylmethoxy)-1,2,3,6-tetrahydro-[4,4′]bipyridinyl]	–	32.1
O=C(NCC1(O)CC1)c1ccc(OCc2conc2-c2ccc(F)cc2)nc1 [Example 339, 6-[3-(4-Fluoro-phenyl)-isoxazol-4-ylmethoxy]-N-(1-hydroxy-cyclopropylmethyl)-nicotinamide]	23.1	–
Cc1onc(-c2ccc(F)cc2)c1COc1ccc(C(=O)N2CCOCC2)cn1 [Example 110, {6-[3-(4-Fluoro-phenyl)-5-methyl-isoxazol-4-ylmethoxy]-pyridin-3-yl}-morpholin-4-yl-methanone]	13	–
Cc1onc(-c2ccccc2)c1COc1ccc(C(=O)OC(C)C)cn1 [Example 83, 6-(5-Methyl-3-phenyl-isoxazol-4-ylmethoxy)-nicotinic acid isopropyl ester]	4.7	–
Cc1onc(-c2ccc(F)c(F)c2)c1COc1ccc(C(=O)NCC(F)(F)F)cn1 [Example 125, 6-[3-(3,4-Difluoro-phenyl)-5-methyl-isoxazol-4-ylmethoxy]-N-(2,2,2-trifluoro-ethyl)-nicotinamide]	2.7	–
Cc1onc(-c2ccccc2)c1COc1ccc(C(=O)N[C@@H]2CCOC(C)(C)C2)cn1 (racemic) [Example 32, (R,S)—N-(2,2-Dimethyl-tetrahydro-pyran-4-yl)-6-(5-methyl-3-phenyl-isoxazol-4-ylmethoxy)-nicotinamide]	8	–
CNC(=O)c1ccc(OCc2c(-c3ccc(F)cn3)noc2C)nc1 [Example 298, 6-[3-(5-Fluoro-pyridin-2-yl)-5-methyl-isoxazol-4-ylmethoxy]-methyl-nicotinamide]	0.6	–
Cc1onc(-c2ccccc2)c1COc1ccc(C(=O)NCCO)cn1 [Example 13, N-(2-Hydroxy-ethyl)-6-(5-methyl-3-phenyl-isoxazol-4-ylmethoxy)-nicotinamide]	2.6	–
Cc1onc(-c2ccccc2)c1COc1ccc(C(=O)NCC2CCCOC2)cn1 (stereo not shown) [Example 76, 6-(5-Methyl-3-phenyl-isoxazol-4-ylmethoxy)-N-(tetrahydro-pyran-3-ylmethyl)-nicotinamide]	11.7	–
Cc1onc(-c2ccc(Cl)cn2)c1COc1ccc(C(=O)NC(C)(C)CO)cn1 [Example 305, 6-[3-(5-Chloro-pyridin-2-yl)-5-methyl-isoxazol-4-ylmethoxy]-(2-hydroxy-1,1-dimethyl-ethyl)-nicotinamide]	0.6	–
O=C(NCC(F)(F)F)c1ccc(OCc2conc2-c2ccc(F)cn2)nc1 [Example 369, 6-[3-(5-Fluoro-pyridin-2-yl)-isoxazol-4-ylmethoxy]-(2,2,2-trifluoro-ethyl)-nicotinamide]	9.3	–

Continued, in another order:

Ki [1] [nM]	SMILES	Ki [nM]
19.4	Cc1onc(-c2cccc(F)c2)c1CNc1ccc(C(=O)NC2CC2)cn1 [Example 170, N-Cyclopropyl-6-{[3-(3-fluoro-phenyl)-5-methyl-isoxazol-4-ylmethyl]-amino}-nicotinamide]	–
0.8	Cc1ccc(-c2noc(C)c2COc2ccc(C(=O)NC(C)C)cn2)c(F)c1 [Example 253, 6-[3-(2-Fluoro-4-methyl-phenyl)-5-methyl-isoxazol-4-ylmethoxy]-N-isopropyl-nicotinamide]	–
88.5	COC(=O)c1ccc(OCc2c(-c3ccccc3)noc2C(F)(F)F)nc1 [Example 128, 6-(3-Phenyl-5-trifluoromethyl-isoxazol-4-ylmethoxy)-nicotinic acid methyl ester]	–
2.6	Cc1onc(-c2ccccc2)c1COc1ccc(C(=O)NC2CC(OCc3ccccc3)C2)cn1 (stereo not shown) [Example 226, N-(3-Benzyloxy-cyclobutyl)-6-(5-methyl-3-phenyl-isoxazol-4-ylmethoxy)-nicotinamide]	–
29.2	Cc1onc(-c2ccc(F)cc2)c1CNc1ccc(C(=O)N2CCS(=O)(=O)CC2)cn1 [Example 178, (1,1-Dioxo-1,6-thiomorpholin-4-yl)-(6-{[3-(4-fluoro-phenyl)-5-methyl-isoxazol-4-ylmethyl]-amino}-pyridin-3-yl)-methanone]	–
0.8	Cc1onc(-c2ccc(Cl)cc2)c1COc1ccc(C(=O)Nc2cnn(C)c2)cn1 [Example 255, 6-[3-(4-Chloro-phenyl)-5-methyl-isoxazol-4-ylmethoxy]-N-(1-methyl-1H-pyrazol-4-yl)-nicotinamide]	–
0.8	Cc1onc(-c2ccc(Cl)cc2)c1COc1ccc(C(=O)N[C@H](C)CO)cn1 [Example 256, 6-[3-(4-Chloro-phenyl)-5-methyl-isoxazol-4-ylmethoxy]-N—((R)-2-hydroxy-1-methyl-ethyl)-nicotinamide]	–
26.5	Cc1onc(-c2cccc(F)c2F)c1COc1ccc(C(=O)NC(C)C)cn1 [Example 261, 6-[3-(2,3-Difluoro-phenyl)-5-methyl-isoxazol-4-ylmethoxy]-N-isopropyl-nicotinamide]	–
1.6	Cc1onc(-c2ccccc2)c1COc1ccc(C(=O)N[C@H]2CCOC2)cn1 [Example 202, 6-(5-Methyl-3-phenyl-isoxazol-4-ylmethoxy)-N—(S)-tetrahydro-furan-3-yl-nicotinamide]	–
0.9	Cc1ccc(-c2noc(C)c2COc2ccc(C(=O)NC3CCOCC3)cn2)cc1 [Example 251, 6-(5-Methyl-3-p-tolyl-isoxazol-4-ylmethoxy)-N-(tetrahydro-pyran-4-yl)-nicotinamide]	–
6	Cc1onc(-c2ccncn2)c1COc1ccc(C(=O)NCCO)cn1 [Example 320, N-(2-Hydroxy-ethyl)-6-(5-methyl-3-pyrimidin-4-yl-isoxazol-4-ylmethoxy)-nicotinamide]	–
20.2	Cc1onc(-c2ccccc2)c1COc1ccc(C(=O)N2CCC[C@@H]2CO)cn1 [Example 225]	–
25.9	COC(=O)c1ccc(NCc2c(-c3ccc(F)cc3)noc2C)nc1 [Example 172, 6-{[3-(4-Fluoro-phenyl)-5-methyl-isoxazol-4-ylmethyl]-amino}-nicotinic acid methyl ester]	–
37.1	Cc1onc(-c2ccccc2)c1COc1ccc(C(=O)N2CCCC2)cn1 [Example 228, [6-(5-Methyl-3-phenyl-isoxazol-4-ylmethoxy)-pyridin-3-yl]-pyrrolidin-1-yl-methanone]	–
29.2	O=C(N[C@@H]1CCC[C@H]1O)c1ccc(OCc2conc2-c2ccc(F)cc2)nc1 (single isomer, unassigned) [Example 341, 6-[3-(4-Fluoro-phenyl)-isoxazol-4-ylmethoxy]-N-((1R,2R)-2-hydroxy-cydopentyl)-nicotinamide or 6-[3-(4-fluoro-phenyl)-isoxazol-4-ylmethoxy]-N-((1S,2S)-2-hydroxy-cydopentyl)-nicotinamide]	–
87.3	Cc1onc(-c2ccccc2)c1CNc1ccccn1 [Example 160, (5-Methyl-3-phenyl-isoxazol-4-ylmethyl)-pyridin-2-yl-amine]	–
4.1	Cc1onc(-c2ccncc2)c1COc1ccc(C(=O)NCC2CC2)cn1 [Example 147, N-Cyclopropylmethyl-6-(5-methyl-3-pyridin-4-yl-isoxazol-4-ylmethoxy)-nicotinamide]	–
1.7	Cc1onc(-c2ccccc2)c1COc1ccc(C(=O)N[C@H](C)CO)cn1 [Example 195, N—((R)-2-Hydroxy-1-methyl-ethyl)-6-(5-methyl-3-phenyl-isoxazol-4-ylmethoxy)-nicotinamide]	–
